In US11484525B2 (priority 2015, dated 2022):
“Also recorded” adds a separate entry of the source.

Columns and labels:
μOR [1] = molecular target: T1, μOR (Homo sapiens (Human), UniProt P35372); type: cell-based
MOR = MOR (Homo sapiens (Human), UniProt P35372); experiment: MOR functional annotations (method not given); conditions: for MOR agonist (potency annotation under structure): Table 4 caption line; for functional classification given with the label: binding table, compound cell
hMOR + Gqi5 = hMOR + Gqi5 (Homo sapiens (Human), UniProt P35372); experiment: IP accumulation assay hMOR + Gqi5; type: cell-based; conditions: % morphine, at 10 μM
μOR [2] = molecular target: T1, μOR; experiment: Radioligand competition binding vs 3H-diprenorphine at μOR
κOR [3] = molecular target: T2, κOR (Homo sapiens (Human), UniProt P41145); experiment: Radioligand binding at κOR (PDSP); conditions: Table 2; no Ki, below 50%
nociceptin receptor = nociceptin receptor (Homo sapiens (Human), UniProt P41146); experiment: Gi/o Glosensor assay at nociceptin receptor; type: cell-based
C57BL/6J mice [4] = experiment: Hot-plate analgesia; type: in vivo, mouse
μOR [5] = molecular target: T1, μOR; experiment: Calcium release (FLIPR); type: cell-based
Method: Calcium release was measured using a FLIPR^TETRA fluorescence imaging plate reader (Molecular Devices). Calcium release experiments were run in parallel to Gi/o Glosensor experiments with the same HEKT cells transfected with μOR, except cells for FLIPR were plated in poly-lysine coated 384-well black clear bottom cell culture plates. […] Dye was incubated for 1 hour at 37° C. Afterwards, cells were equilibrated to room temperature, and fluorescence in each well was read for the initial 10 seconds to establish a baseline. Afterwards, 10 μL of drug (3×) was added per well and the maximum-fold increase in fluorescence was determined as fold-over-baseline. Drug solutions used for the FLIPR assay were exactly the same as used for Gi/o Glosensor experiments. To activate endogenous Gq-coupled receptors as a positive control for calcium release, TFLLR-NH2 (10 μM, PAR-1 selective agonist) was used.

κOR [6] = molecular target: T2, κOR; experiment: Gi/o Glosensor assay at κOR; type: cell-based
μOR [7] = molecular target: T1, μOR; experiment: β-arrestin2 recruitment by BRET without GRK2; type: cell-based; conditions: no GRK2
μOR [8] = molecular target: T1, μOR; experiment: β-arrestin2 recruitment by BRET with GRK2 co-expression; type: cell-based
mice [9] = experiment: Formalin injection assay; conditions: mouse, in vivo
μOR [10] = molecular target: T1, μOR; experiment: β-arrestin recruitment, PathHunter enzyme complementation (OPRM1 CHO-K1); type: cell-based
μOR [11] = molecular target: T1, μOR; experiment: Receptor internalization (PathHunter, U2OS); type: cell-based; conditions: compared to DAMGO and morphine
[12] = Metabolism by mouse liver microsomes; type: in vitro ADME; conditions: signaling experiments with resulting metabolite pool
[13] = system: Oprm1−/− and wild-type C57Bl/6J mice; experiment: Hot plate: affective/reflexive subcategorization and μOR knockout mice; type: in vivo, mouse
C57BL/6J mice [14] = experiment: Tail-flick analgesia; conditions: mouse, in vivo
[15] = Pharmacokinetics, serum and brain levels; conditions: mouse, in vivo
Method: Studies were performed by the Preclinical Therapeutics Core and the Drug Studies Unit at the University of California San Francisco. […] All studies were performed with approved mouse protocols from the institutional animal care and use committees.

μOR [16] = molecular target: T1, μOR; experiment: BRET-based cAMP accumulation assay (CAMYEL) for SAR of PZM21-29; type: cell-based; conditions: Gi/o signaling, FIG. 4 analogs
μOR [17] = molecular target: T1, μOR; experiment: Radioligand depletion assay for irreversible binding, wild-type μOR
mice [18] = experiment: Whole body plethysmography (respiration); conditions: equianalgesic doses: PZM21 40 mg/kg, TRV130 […], morphine 10 mg/kg

C[C@H](Cc1ccsc1)NC(=O)NC[C@H](Cc1ccc(O)cc1)N(C)C [(S,R)-21, 1-[(S)-2-(Dimethylamino)-3-(4-hydroxyphenyl)propyl]-3-((R)-1-(thiophen-3-yl)propan-2-yl)urea]
Gi/o activation / μOR agonist activity (μOR [1]): more potent partial agonist of the μOR

C[C@@H](Cc1ccsc1)NC(=O)NC[C@H](Cc1ccccc1)N(C)C [(S,S)-12, 1-[(S)-2-(Dimethylamino)-3-phenylpropyl]-3-[(S)-1-(thiophen-3-yl)propan-2-yl]urea]
MOR agonist (potency annotation under structure) (MOR): (S,S)-12 12 nM MOR agonist

Cc1cc(O)cc(C)c1C[C@@H](CNC(=O)N[C@H](C)Cc1ccsc1)N(C)C [BD 131LR, 1-((S)-2-(dimethylamino)-3-(4-hydroxy-2,6-dimethylphenyl)propyl)-3-((R)-1-(thiophen-3-yl)propan-2-yl)urea]
hMOR + Gqi5 IP accumulation assay efficacy a @ 10 μM (hMOR + Gqi5): @ 10 μMa: 10%

CC(C)[C@H](CNC(=O)c1ccc([N+](=O)[O-])s1)N1CCc2ccccc2C1 [Compound 8]
Gi/o activation / μOR agonist activity (μOR [1]): activated Gi/o

O=C(Cc1cn2ccccc2n1)NCC1(c2ccccc2)CCC1 [Compound 9]
μOR Ki column, given as <50% (μOR [2]): <50%

CN(Cc1nnc(C2CC2)n1C)C(=O)NC[C@@H](Cc1ccccc1)N(C)C [Compound 10]
κOR Ki, given as <50% (κOR [3]): <50%

CN(C)[C@@H](CNC(=O)NC[C@@H](O)c1cnn(C)c1)Cc1ccccc1 [Compound 11]
κOR Ki, given as <50% (κOR [3]): <50%

Cc1nc(CNC(=O)NC[C@@H](Cc2ccccc2)N(C)C)sc1C [Compound 15]
κOR Ki, given as <50% (κOR [3]): <50%

CN(C)[C@H](CNC(=O)NCCc1ccsc1)Cc1ccc(O)cc1 [DD 16, (S)-1-(2-(dimethylamino)-3-(4-hydroxyphenyl)propyl)-3-(2-(thiophen-3-yl)ethyl)urea]
MOR agonist (potency annotation under structure) (MOR): (23) 58 nM MOR agonist

Cc1cc(O)cc(C)c1C[C@@H](CNC(=O)NCCc1ccsc1)N(C)C [DD 34L, (S)-1-(2-(dimethylamino)-3-(4-hydroxy-2,6-dimethylphenyl)propyl)-3-(2-(thiophen-3-yl)ethyl)urea]
functional classification given with the label (MOR): DD 34L (ANTAGONIST) [drawing 449]

Cc1cc(O)cc(C)c1C[C@@H](CNC(=O)NCCN1C(=O)C=CC1=O)N(C)C [DD 144, (S)-1-(2-(dimethylamino)-3-(4-hydroxy-2,6-dimethylphenyl)propyl)-3-(2-(2,5-dioxo-2,5-dihydro-1H-pyrrol-1-yl)ethyl)urea]
functional classification given with the label (MOR): DD 144 (ANTAGONIST, Covalent) [drawing 455]

C[C@@H](Cc1ccsc1)NC(=O)NC[C@H](Cc1ccc(O)cc1)N(C)C [PZM21, 1-[(S)-2-(Dimethylamino)-3-(4-hydroxyphenyl)propyl]-3-((S)-1-(thiophen-3-yl)propan-2-yl)urea]
nociceptin receptor agonist activity (nociceptin receptor): no detectable
hot-plate % MPE (C57BL/6J mice [4]; 15 minutes after highest dose tested, s.c.): 87%
hot-plate analgesia (C57BL/6J mice [4]; mouse, in vivo): dose-dependent analgesia
calcium release (μOR [5]): no activity
κOR agonist activity (κOR [6]): no detectable
mode of action at κOR (κOR [6]; antagonist mode): antagonist
β-arrestin2 recruitment in the absence of GRK2 (μOR [7]): no β-arrestin2 recruitment
arrestin recruitment with over-expressed GRK2 (μOR [8]): weak arrestin recruitment efficacy; also recorded: we observe arrestin recruitment
formalin injection nociception (mice [9]): active
β-arrestin2 recruitment in PathHunter assay (μOR [10]): undetectable; also recorded: minimal recruitment; also recorded: no detectable
μOR internalization (μOR [11]): minimal level
μOR activation by metabolite pool [12]: no evidence of a metabolite with more potent activation of the μOR
analgesic response in μOR knockout mice ([13]; Oprm1−/− mice, hot plate): completely ablates
affective vs reflexive component of pain ([13]; hot plate 52.5° C.): only modulates the affective component of pain; also recorded: solely confers analgesia to the affective component of pain
tail-flick analgesia (C57BL/6J mice [14]): no activity; also recorded: no analgesic effect
blood brain barrier penetration [15]: substantial fraction

CN(CC1CC1)[C@H](CNC(=O)NCCc1ccccc1)Cc1ccc(O)cc1 [PZM27, (S)-1-(2-((Cyclopropylmethyl)(methyl)amino)-3-(4-hydroxyphenyl)propyl)-3-phenethylurea×CF3COOH]
efficacy and potency as agonist (μOR [16]): decreased efficacy
loss of potency relative to parent (μOR [16]): 30 fold

CN(C=O)[C@H](CNC(=O)NCCc1ccccc1)Cc1ccc(O)cc1 [PZM28, (S)—N-(1-(4-Hydroxyphenyl)-3-(3-phenethylureido)propan-2-yl)-N-methylformamide]
loss of potency relative to parent (μOR [16]): 1000 fold

CN(C)[C@H](CNC(=O)NCCc1cn(CCSSCCN=[N+]=[N-])nn1)Cc1ccc(O)cc1 [PZM29, (S)-1-(2-(1-(2-((2-Azidoethyl)disulfanyl)ethyl)-1H-1,2,3-triazol-4-yl)ethyl)-3-(2-(dimethylamino)-3-(4-hydroxyphenyl)propyl)urea×CF3COOH]
irreversible binding to wild-type μOR (μOR [17]): not the wild-type receptor
efficacy and potency as agonist (μOR [16]): retains its efficacy as an agonist

COc1ccsc1CNCC[C@@]1(c2ccccn2)CCOC2(CCCC2)C1 [TRV130, reference compound]
respiration frequency / respiratory depression (mice [18]): significantly depresses respiration at 15 minutes
β-arrestin2 recruitment in the absence of GRK2 (μOR [7]): no β-arrestin2 recruitment
arrestin recruitment with over-expressed GRK2 (μOR [8]): we observe arrestin recruitment
